PubChem BioAssay AID248 (DTP/NCI, 2004)
Where “and” joins values, the source holds several entries; their conditions need not be identical. Equal values may be shown once. Inconclusive results and toxic doses are left out. No stated cut-off is given here; in the data, active means T/C of 150% or more; inactive means T/C below 125%.

System: L1210 leukemia ip in BDF1 mice, survival T/C
Experiment: NCI In Vivo Anticancer Drug Screen. Data for tumor model L1210 Leukemia (intraperitoneal) in B6D2F1 (BDF1) mice
Details: endpoint: mean survival time, higher = longer survival
Outline: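 Survival endpoint. Drug-treated group vs vehicle group, expressed as T divided by C. Tumor passaged by transplantation.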

[1] = dose: 100.0 mg/kg/injection, schedule: Q01DX009 (ip), vehicle: saline
[2] = dose: 100.0 mg/kg/injection, schedule: Q04DX003 (ip), vehicle: saline
[3] = dose: 200.0 mg/kg/injection, schedule: Q04DX003 (ip), vehicle: saline
[4] = dose: 100.0 mg/kg/injection, schedule: Q01DX001 (ip), vehicle: other
[5] = dose: 200.0 mg/kg/injection, schedule: Q01DX001 (ip), vehicle: other
[6] = dose: 400.0 mg/kg/injection, schedule: Q01DX001 (ip), vehicle: other
[7] = dose: 25.0 mg/kg/injection, schedule: Q04DX003 (ip), vehicle: Klucel (hydroxypropylcellulose) (HPC)
[8] = dose: 50.0 mg/kg/injection, schedule: Q04DX003 (ip), vehicle: Klucel (hydroxypropylcellulose) (HPC)
[9] = dose: 100.0 mg/kg/injection, schedule: Q04DX003 (ip), vehicle: Klucel (hydroxypropylcellulose) (HPC)
[10] = dose: 100.0 mg/kg/injection, schedule: Q01DX001 (ip), vehicle: saline

Measured: T/C

CS(=O)(=O)Nc1cc(C(O)C2CCCCN2)ccc1O (stereo unspecified)
inactive: dose: 25.0 mg/kg/injection, schedule: Q01DX009 (ip), vehicle: saline 103 % of control | dose: 50.0 mg/kg/injection, schedule: Q01DX009 (ip), vehicle: saline 97 % of control | [1] 95 % of control | [2] 104 % of control | [3] 104 % of control

CCCCCCCCCCCCCCCCN1CNC(=O)NC1
inactive: [4] 98 % of control | [5] 98 % of control | [6] 95 % of control

COc1ccccc1N=Nc1c(O)n(-c2ccccc2C)c(=S)n(-c2ccccc2OC)c1=O
inactive: [7] 98 % of control | [8] 98 % of control | dose: 100.0 mg/kg/injection, schedule: Q01DX001 (ip), vehicle: Klucel (hydroxypropylcellulose) (HPC) 109 % of control | [9] 91 % of control | dose: 200.0 mg/kg/injection, schedule: Q01DX001 (ip), vehicle: Klucel (hydroxypropylcellulose) (HPC) 98 % of control

Nc1cccc2c1C(=O)C=CC2=O
inactive: dose: 0.78 mg/kg/injection, schedule: Q01DX009 (ip), vehicle: saline 103 % of control | dose: 1.56 mg/kg/injection, schedule: Q01DX009 (ip), vehicle: saline 101 % of control | dose: 1.56 mg/kg/injection, schedule: Q04DX003 (ip), vehicle: saline 95 % of control | dose: 3.12 mg/kg/injection, schedule: Q01DX009 (ip), vehicle: saline 98 % of control | dose: 3.12 mg/kg/injection, schedule: Q04DX003 (ip), vehicle: saline 103 % of control | dose: 4.6 mg/kg/injection, schedule: Q01DX009 (ip), vehicle: saline 104 % of control

Nc1nc(-c2cccc([N+](=O)[O-])c2)nc2[nH]ncc12
inactive: dose: 37.5 mg/kg/injection, schedule: Q01DX001 (ip), vehicle: Klucel (hydroxypropylcellulose) (HPC) 98 % of control | dose: 75.0 mg/kg/injection, schedule: Q01DX001 (ip), vehicle: Klucel (hydroxypropylcellulose) (HPC) 98 % of control | dose: 150.0 mg/kg/injection, schedule: Q01DX001 (ip), vehicle: Klucel (hydroxypropylcellulose) (HPC) 96 % of control

CC(=O)OC(C)C1C2=C(C(=O)CC1(C)O)C(=O)c1c(ccc(-c3ccc4c(c3O)C(=O)C3=C(C4=O)C(C(C)OC(C)=O)C(C)(O)CC3=O)c1O)C2=O (stereo unspecified)
inactive: dose: 6.25 mg/kg/injection, schedule: Q01DX009 (ip), vehicle: saline with Tween-80 111 % of control | dose: 12.5 mg/kg/injection, schedule: Q01DX009 (ip), vehicle: saline with Tween-80 109 % of control

CC(C)(CSCC(C)(C)C(=O)O)C(=O)O
inactive: [9] 104 % of control | dose: 200.0 mg/kg/injection, schedule: Q04DX003 (ip), vehicle: Klucel (hydroxypropylcellulose) (HPC) 94 % of control | dose: 400.0 mg/kg/injection, schedule: Q04DX003 (ip), vehicle: Klucel (hydroxypropylcellulose) (HPC) 91 % of control

CCOC(=O)c1c(C)nc(C)c(C(=O)OCC)c1-c1ccc(N(C)C)cc1
inactive: dose: 25.6 mg/kg/injection, schedule: Q04DX002 (ip), vehicle: saline with Tween-80 101 % of control | dose: 64.0 mg/kg/injection, schedule: Q04DX002 (ip), vehicle: saline with Tween-80 97 % of control

O=C(C=P(c1ccccc1)(c1ccccc1)c1ccccc1)CCl
inactive: dose: 6.25 mg/kg/injection, schedule: Q01DX001 (ip), vehicle: Klucel (hydroxypropylcellulose) (HPC) 102 % of control | dose: 6.25 mg/kg/injection, schedule: Q01DX009 (ip), vehicle: Klucel (hydroxypropylcellulose) (HPC) 103 % of control | dose: 6.25 mg/kg/injection, schedule: Q04DX003 (ip), vehicle: Klucel (hydroxypropylcellulose) (HPC) 97 % of control | dose: 12.5 mg/kg/injection, schedule: Q01DX001 (ip), vehicle: Klucel (hydroxypropylcellulose) (HPC) 98 % of control | dose: 12.5 mg/kg/injection, schedule: Q01DX009 (ip), vehicle: Klucel (hydroxypropylcellulose) (HPC) 101 % of control | dose: 12.5 mg/kg/injection, schedule: Q04DX003 (ip), vehicle: Klucel (hydroxypropylcellulose) (HPC) 97 % of control | dose: 25.0 mg/kg/injection, schedule: Q01DX001 (ip), vehicle: Klucel (hydroxypropylcellulose) (HPC) 98 % of control | dose: 25.0 mg/kg/injection, schedule: Q01DX009 (ip), vehicle: Klucel (hydroxypropylcellulose) (HPC) 104 % of control | [7] 100 % of control

CCC1=CC(=O)CCC1
inactive: dose: 50.0 mg/kg/injection, schedule: Q01DX001 (ip), vehicle: saline 96 % of control | [10] 100 % of control | dose: 200.0 mg/kg/injection, schedule: Q01DX001 (ip), vehicle: saline 102 % of control | dose: 400.0 mg/kg/injection, schedule: Q01DX001 (ip), vehicle: saline 108 % of control

CC(=O)Nc1ccc[n+](Cc2ccc(S(=O)(=O)F)cc2)c1
inactive: [7] 104 % of control | [8] 104 % of control

COc1cccc(CC#N)c1
inactive: dose: 12.5 mg/kg/injection, schedule: Q01DX001 (ip), vehicle: saline with Tween-80 106 % of control | dose: 25.0 mg/kg/injection, schedule: Q01DX001 (ip), vehicle: saline with Tween-80 93 % of control | dose: 50.0 mg/kg/injection, schedule: Q01DX001 (ip), vehicle: saline with Tween-80 97 % of control

CC1OCC(C[N+](C)(C)C)O1 (stereo unspecified)
inactive: dose: 0.09 mg/kg/injection, schedule: Q04DX002 (ip), vehicle: saline 95 % of control | dose: 0.18 mg/kg/injection, schedule: Q04DX002 (ip), vehicle: saline 106 % of control | dose: 0.37 mg/kg/injection, schedule: Q04DX002 (ip), vehicle: saline 95 % of control | dose: 0.75 mg/kg/injection, schedule: Q04DX002 (ip), vehicle: saline 103 % of control and 109 % of control | dose: 1.5 mg/kg/injection, schedule: Q04DX002 (ip), vehicle: saline 100 % of control and 106 % of control

CN(/N=N/c1nc[nH]c1C(=O)N/N=C/c1ccc(N(CCCl)CCCl)cc1)C1CCCCC1
inactive: [4] 95 % of control | [5] 95 % of control | [6] 90 % of control

Cc1cc[n+](CCCCCCCCCO)cc1
inactive: [10] 103 % of control

C=C(Br)S(=O)(=O)CC
inactive: dose: 6.25 mg/kg/injection, schedule: Q04DX002 (ip), vehicle: saline 101 % of control | dose: 12.5 mg/kg/injection, schedule: Q04DX002 (ip), vehicle: saline 90 % of control | dose: 25.0 mg/kg/injection, schedule: Q04DX002 (ip), vehicle: Klucel (hydroxypropylcellulose) (HPC) 101 % of control | dose: 25.0 mg/kg/injection, schedule: Q04DX002 (ip), vehicle: saline 111 % of control

c1ccc(C2=NCC3(CCCC3)N=C2c2ccccc2)cc1
inactive: [1] 101 % of control | [2] 97 % of control | dose: 200.0 mg/kg/injection, schedule: Q01DX009 (ip), vehicle: saline 91 % of control | [3] 90 % of control | dose: 400.0 mg/kg/injection, schedule: Q01DX009 (ip), vehicle: saline 100 % of control | dose: 400.0 mg/kg/injection, schedule: Q04DX003 (ip), vehicle: saline 92 % of control

CC(C)(SCc1ccccc1)C(NC(=O)OCc1ccccc1)C(=O)O (stereo unspecified)
inactive: dose: 12.5 mg/kg/injection, schedule: Q01DX009 (ip), vehicle: DMSO 92 % of control | dose: 25.0 mg/kg/injection, schedule: Q01DX009 (ip), vehicle: DMSO 92 % of control | dose: 50.0 mg/kg/injection, schedule: Q01DX009 (ip), vehicle: DMSO 88 % of control | dose: 100.0 mg/kg/injection, schedule: Q04DX002 (ip), vehicle: DMSO 95 % of control | dose: 200.0 mg/kg/injection, schedule: Q04DX002 (ip), vehicle: DMSO 97 % of control

CCCCCC[As](=O)(O)O
inactive: dose: 1.5 mg/kg/injection, schedule: Q01DX001 (ip), vehicle: carboxymethylcellulose (CMC) 98 % of control | dose: 3.0 mg/kg/injection, schedule: Q01DX001 (ip), vehicle: carboxymethylcellulose (CMC) 93 % of control | dose: 6.0 mg/kg/injection, schedule: Q01DX001 (ip), vehicle: carboxymethylcellulose (CMC) 102 % of control

CC(=O)C(C[CH2][Hg][Cl])C(C)=O
inactive: dose: 9.37 mg/kg/injection, schedule: Q01DX001 (ip), vehicle: other 96 % of control | dose: 18.75 mg/kg/injection, schedule: Q01DX001 (ip), vehicle: other 97 % of control | dose: 37.5 mg/kg/injection, schedule: Q01DX001 (ip), vehicle: other 100 % of control

CC12CC3CC(C)(C1)CC(Br)(C3)C2
inactive: dose: 50.0 mg/kg/injection, schedule: Q01DX001 (ip), vehicle: carboxymethylcellulose (CMC) 104 % of control | dose: 100.0 mg/kg/injection, schedule: Q01DX001 (ip), vehicle: carboxymethylcellulose (CMC) 101 % of control | dose: 200.0 mg/kg/injection, schedule: Q01DX001 (ip), vehicle: carboxymethylcellulose (CMC) 113 % of control | dose: 400.0 mg/kg/injection, schedule: Q01DX001 (ip), vehicle: carboxymethylcellulose (CMC) 107 % of control
